In patent publication US20260035387A1 (BIOGEN MA INC., priority 2022, published 2026):
pIC50: −log10 of the molar value.

tested on: mutant Huntington (HTT) protein; assay: HTT Mutant HTRF iPSC assay (mHTT protein lowering); type: cell-based; settings: human iPSC derived from a HTT patient with a poly-Q49 mutation

| Compound | pIC50 |
| --- | --- |
| COc1cc(NC(=O)c2cc3nc(N4C[C@H]5CN(C)C[C@H]54)ccc3o2)cn2cc(C)nc12 (stereo in doubt) [Compound 168, N-(8-methoxy-2-methyl-imidazo[1,2-a]pyridin-6-yl)-5-[(1R,5S)-3-methyl-3,6-diazabicyclo[3.2.0]heptan-6-yl]furo[3,2-b]pyridine-2-carboxamide] | > 7.00 |
| Cc1cn2cc(NC(=O)c3cc4ccc(N5CCC(N(C)C)C5)nc4s3)ccc2n1 (stereo not shown) [Compound 1, 6-[3-(dimethylamino)pyrrolidin-1-yl]-N-(2-methylimidazo[1,2-a]pyridin-6-yl)thieno[2,3-b]pyridine-2-carboxamide] | 5.05 to 6.00 |
| Cc1cc(NC(=O)c2cc3ccc(N4C[C@@H](C)N[C@@H](C)C4)nc3s2)cc2cn(C)nc12 [Compound 2, N-(2,7-dimethylindazol-5-yl)-6-[(3S,5R)-3,5-dimethylpiperazin-1-yl]thieno[2,3-b]pyridine-2-carboxamide] | > 7.00 |
| Cc1cn2cc(NC(=O)c3cc4ccc(N5CCN(C)CC5)nc4s3)nc(C)c2n1 [Compound 3, N-(2,8-dimethylimidazo[1,2-a]pyrazin-6-yl)-6-(4-methylpiperazin-1-yl)thieno[2,3-b]pyridine-2-carboxamide] | 6.00 to 7.00 |
| Cc1cc(NC(=O)c2cc3ccc(N4CCC(N(C)C)C4)nc3s2)cc2cn(C)nc12 (stereo not shown) [Compound 4, N-(2,7-dimethyl-2H-indazol-5-yl)-6-(3-(dimethylamino)pyrrolidin-1-yl)thieno[2,3-b]pyridine-2-carboxamide] | 6.00 to 7.00 |
| Cc1cn2cc(NC(=O)c3cc4ccc(N5CCC(N(C)C)C5)nc4s3)nc(C)c2n1 (stereo not shown) [Compound 5, 6-(3-(dimethylamino)pyrrolidin-1-yl)-N-(2,8-dimethylimidazo[1,2-a]pyrazin-6-yl)thieno[2,3-b]pyridine-2-carboxamide] | 6.00 to 7.00 |
| Cc1cn2cc(NC(=O)c3cc4ccc(N5CC[C@@H](N(C)C)C5)nc4s3)ncc2n1 [Compound 6, 6-[(3R)-3-(dimethylamino)pyrrolidin-1-yl]-N-(2-methylimidazo[1,2-a]pyrazin-6-yl)thieno[2,3-b]pyridine-2-carboxamide] | 6.00 to 7.00 |
| Cc1cc(NC(=O)c2cc3nc(N4CCC(N(C)C)C4)ccc3o2)cc2cn(C)nc12 (stereo not shown) [Compound 7, N-(2,7-dimethyl-2H-indazol-5-yl)-5-(3-(dimethylamino)pyrrolidin-1-yl)furo[3,2-b]pyridine-2-carboxamide] | 5.05 to 6.00 |
| Cc1cn2cc(NC(=O)c3cc4nc(N5CC[C@H](N(C)C)C5)ccc4o3)cc(F)c2n1 [Compound 8, 5-[(3S)-3-(dimethylamino)pyrrolidin-1-yl]-N-(8-fluoro-2-methyl-imidazo[1,2-a]pyridin-6-yl)furo[3,2-b]pyridine-2-carboxamide] | 5.05 to 6.00 |
| Cc1cn2cc(NC(=O)c3nc4ccc(N5CCC(N(C)C)C5)nc4s3)ccc2n1 (stereo not shown) [Compound 9, 5-[3-(dimethylamino)pyrrolidin-1-yl]-N-(2-methylimidazo[1,2-a]pyridin-6-yl)thiazolo[5,4-b]pyridine-2-carboxamide] | 5.05 to 6.00 |
| Cc1cn2cc(NC(=O)c3cc4ccc(N5CC[C@@H](N(C)C)C5)nc4s3)cc(F)c2n1 [Compound 10, 6-[(3R)-3-(dimethylamino)pyrrolidin-1-yl]-N-(8-fluoro-2-methyl-imidazo[1,2-a]pyridin-6-yl)thieno[2,3-b]pyridine-2-carboxamide] | > 7.00 |
| Cc1cn2cc(NC(=O)c3cc4ccc(N5CCC(N(C)C)CC5)nc4s3)ccc2n1 [Compound 11, 6-(4-(dimethylamino)piperidin-1-yl)-N-(2-methylimidazo[1,2-a]pyridin-6-yl)thieno[2,3-b]pyridine-2-carboxamide] | 6.00 to 7.00 |
| Cc1cn2cc(NC(=O)c3cc4ccc(NC5CC6CCCN6C5)nc4s3)ccc2n1 (stereo not shown) [Compound 12, 6-((hexahydro-1H-pyrrolizin-2-yl)amino)-N-(2-methylimidazo[1,2-a]pyridin-6-yl)thieno[2,3-b]pyridine-2-carboxamide] | 6.00 to 7.00 |
| Cc1cn2cc(NC(=O)c3cc4ccc(NC5CCC6CN(C)CC65)nc4s3)ccc2n1 (stereo not shown) [Compound 13, N-(2-methylimidazo[1,2-a]pyridin-6-yl)-6-((2-methyloctahydrocyclopenta[c]pyrrol-4-yl)amino)thieno[2,3-b]pyridine-2-carboxamide] | 5.05 to 6.00 |
| Cc1cn2cc(NC(=O)c3cc4ccc(NC5CCN6CCCC6C5)nc4s3)ccc2n1 (stereo not shown) [Compound 14, N-(2-methylimidazo[1,2-a]pyridin-6-yl)-6-((octahydroindolizin-7-yl)amino)thieno[2,3-b]pyridine-2-carboxamide] | 6.00 to 7.00 |
| Cc1cn2cc(NC(=O)c3cc4ccc(N5CCC6OCCN(C)C6C5)nc4s3)ccc2n1 (stereo not shown) [Compound 15, 6-(4-methylhexahydro-2H-pyrido[4,3-b][1,4]oxazin-6(5H)-yl)-N-(2-methylimidazo[1,2-a]pyridin-6-yl)thieno[2,3-b]pyridine-2-carboxamide] | 6.00 to 7.00 |
| Cc1cn2cc(NC(=O)c3cc4ccc(N5CCC6CCN(C)CC65)nc4s3)ccc2n1 (stereo not shown) [Compound 16, N-(2-methylimidazo[1,2-a]pyridin-6-yl)-6-(6-methyloctahydro-1H-pyrrolo[2,3-c]pyridin-1-yl)thieno[2,3-b]pyridine-2-carboxamide] | 5.05 to 6.00 |

| Compound | pIC50 |
| --- | --- |
| Cc1cn2cc(NC(=O)c3cc4ccc(N5CCC(N6CC(C)(C)C6)CC5)nc4s3)ccc2n1 [Compound 17, 6-(4-(3,3-dimethylazetidin-1-yl)piperidin-1-yl)-N-(2-methylimidazo[1,2-a]pyridin-6-yl)thieno[2,3-b]pyridine-2-carboxamide] | 5.05 to 6.00 |
| Cc1cn2cc(NC(=O)c3cc4ccc(N5C[C@@H](C)N(C)[C@@H](C)C5)nc4s3)ccc2n1 [Compound 18, N-(2-methylimidazo[1,2-a]pyridin-6-yl)-6-((3R,5S)-3,4,5-trimethylpiperazin-1-yl)thieno[2,3-b]pyridine-2-carboxamide] | > 7.00 |
| Cc1cn2cc(NC(=O)c3cc4ccc(N5CCC(N6CCCC6)C5)nc4s3)ccc2n1 (stereo not shown) [Compound 19, 6-([1,3′-bipyrrolidin]-1′-yl)-N-(2-methylimidazo[1,2-a]pyridin-6-yl)thieno[2,3-b]pyridine-2-carboxamide] | 6.00 to 7.00 |
| Cc1cn2cc(NC(=O)c3cc4ccc(N5CCC6(CCN(C)CC6)CC5)nc4s3)ccc2n1 [Compound 20] | 6.00 to 7.00 |
| Cc1cn2cc(NC(=O)c3cc4ccc(N5C[C@H]6CN(C)C[C@H]6C5)nc4s3)ccc2n1 [Compound 21, 6-((3aR,6aS)-5-methylhexahydropyrrolo[3,4-c]pyrrol-2(1H)-yl)-N-(2-methylimidazo[1,2-a]pyridin-6-yl)thieno[2,3-b]pyridine-2-carboxamide] | 6.00 to 7.00 |
| Cc1cn2cc(NC(=O)c3cc4ccc(N5CC(N(C)C)C5)nc4s3)ccc2n1 [Compound 22, 6-(3-(dimethylamino)azetidin-1-yl)-N-(2-methylimidazo[1,2-a]pyridin-6-yl)thieno[2,3-b]pyridine-2-carboxamide] | 5.05 to 6.00 |
| Cc1cn2cc(NC(=O)c3cc4ccc(N(C)CCN(C)C)nc4s3)ccc2n1 [Compound 23, 6-((2-(dimethylamino)ethyl)(methyl)amino)-N-(2-methylimidazo[1,2-a]pyridin-6-yl)thieno[2,3-b]pyridine-2-carboxamide] | 6.00 to 7.00 |
| Cc1cn2cc(NC(=O)c3cc4ccc(N5C[C@@H]6[C@H](C5)[C@H]6N(C)C)nc4s3)ccc2n1 [Compound 24, 6-((1R,5S,6s)-6-(dimethylamino)-3-azabicyclo[3.1.0]hexan-3-yl)-N-(2-methylimidazo[1,2-a]pyridin-6-yl)thieno[2,3-b]pyridine-2-carboxamide] | 5.05 to 6.00 |
| Cc1cn2cc(NC(=O)c3cc4ccc(N5CC6CCC5CN6C)nc4s3)ccc2n1 (stereo not shown) [Compound 27, 6-(5-methyl-2,5-diazabicyclo[2.2.2]octan-2-yl)-N-(2-methylimidazo[1,2-a]pyridin-6-yl)thieno[2,3-b]pyridine-2-carboxamide] | 6.00 to 7.00 |
| CC(=O)N1C[C@@H]2CN(c3ccc4cc(C(=O)Nc5ccc6nc(C)cn6c5)sc4n3)C[C@@H]2C1 [Compound 29, 6-((3aR,6aS)-5-acetylhexahydropyrrolo[3,4-c]pyrrol-2(1H)-yl)-N-(2-methylimidazo[1,2-a]pyridin-6-yl)thieno[2,3-b]pyridine-2-carboxamide] | 5.05 to 6.00 |
| Cc1cn2cc(NC(=O)c3cc4ccc(N5CCN(C)c6ncccc6C5)nc4s3)ccc2n1 [Compound 31, 6-(1-methyl-1,2,3,5-tetrahydro-4H-pyrido[2,3-e][1,4]diazepin-4-yl)-N-(2-methylimidazo[1,2-a]pyridin-6-yl)thieno[2,3-b]pyridine-2-carboxamide] | 6.00 to 7.00 |
| Cc1cn2cc(NC(=O)c3cc4ccc(N5CC6CCC(N(C)C)CC6C5)nc4s3)ccc2n1 (stereo not shown) [Compound 32, 6-(5-(dimethylamino)octahydro-2H-isoindol-2-yl)-N-(2-methylimidazo[1,2-a]pyridin-6-yl)thieno[2,3-b]pyridine-2-carboxamide] | 5.05 to 6.00 |
| Cc1cn2cc(NC(=O)c3cc4ccc(N5C[C@@H](C)N(CC(F)(F)F)[C@@H](C)C5)nc4s3)ccc2n1 [Compound 33] | 6.00 to 7.00 |
| Cc1cn2cc(NC(=O)c3cc4ccc(N5CCC(N6CC(C)(C)C6)C5)nc4s3)ccc2n1 (stereo not shown) [Compound 35, 6-(3-(3,3-dimethylazetidin-1-yl)pyrrolidin-1-yl)-N-(2-methylimidazo[1,2-a]pyridin-6-yl)thieno[2,3-b]pyridine-2-carboxamide] | 6.00 to 7.00 |
| Cc1cn2cc(NC(=O)c3cc4ccc(N5CCC6C(CCCN6C)C5)nc4s3)ccc2n1 (stereo not shown) [Compound 36, N-(2-methylimidazo[1,2-a]pyridin-6-yl)-6-(1-methyloctahydro-1,6-naphthyridin-6(2H)-yl)thieno[2,3-b]pyridine-2-carboxamide] | 6.00 to 7.00 |
| Cc1cn2cc(NC(=O)c3cc4ccc(N(C)C5CN6CCC5CC6)nc4s3)ccc2n1 (stereo not shown) [Compound 38, 6-(methyl(quinuclidin-3-yl)amino)-N-(2-methylimidazo[1,2-a]pyridin-6-yl)thieno[2,3-b]pyridine-2-carboxamide] | 6.00 to 7.00 |
| Cc1cn2cc(NC(=O)c3cc4ccc(Nc5ccc(CN6CCCC6)cc5)nc4s3)ccc2n1 [Compound 39, N-(2-methylimidazo[1,2-a]pyridin-6-yl)-6-((4-(pyrrolidin-1-ylmethyl)phenyl)amino)thieno [2,3-b]pyridine-2-carboxamide] | 5.05 to 6.00 |
